Test results as given in BindingDB's records for doi:10.1016/j.bmcl.2013.03.093 (Rhône-Poulenc Rorer, 2013).

Assay: Antagonist activity at CRTh2 receptor in human whole blood assessed as inhibition of PGD2-induced eosinophil shape change preincubated for 10 mins followed by PGD2 addition measured after 4 mins by side scatter analysis

| IC50 [nM] | SMILES |
| --- | --- |
| 1000 | Cc1c(CC(=O)O)c(=O)[nH]n1Cc1ccccc1S(=O)(=O)c1ccccc1 |
| 1700 | Cc1nn(Cc2ccccc2S(=O)(=O)c2ccccc2)c(C)c1CC(=O)O |

The next lines start with the compound.

| SMILES | IC50 [nM] |
| --- | --- |
| Cc1c(CC(=O)O)c(-c2ccccc2)nn1Cc1ccccc1S(=O)(=O)c1ccccc1 | 2400 |
| Cc1nn(-c2cccc(NC(=O)[C@H]3C[C@@H]3c3ccccc3)c2)c(C)c1CC(=O)O | 2100 |
| Cc1c(CC(=O)O)c(-c2ccc(Cl)cc2)nn1Cc1ccccc1S(=O)(=O)c1ccccc1 | 8100 |
